Assay results reported in patent US20230123334A1, “AMINO LIPID COMPOUND, PREPARATION METHOD THEREFOR, AND APPLICATION THEREOF” (SHENZHEN SHENXIN BIOTECHNOLOGY CO., LTD., priority 2020, published 2023).

Assays:
HEK293 cells [1] = assay: Preliminary screening as DNA vectors, GFP transfection of HEK293 cells; type: cell-based; conditions: HEK293 cells; lipid/DOPE liposome with 75 ng plasmid DNA (psin-EGFP-IRES-Puro); number of cells expressing GFP divided by total number of nuclei (Hoechst)
Method in brief: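 First, amino lipid and DOPE were vortexed in sodium acetate buffer (pH 5.6) to form liposomes. Next, these were held with 75 ng EGFP plasmid at room temperature for 30 min. Finally, HEK293 cells were added, cultured at 37° C., Hoechst-stained, and GFP+/total nuclei scored by imaging.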

HEK293 cells [2] = assay: Preliminary screening as mRNA vectors, EGFP mRNA transfection of HEK293 cells; type: cell-based; conditions: HEK293 cells, 96-well plates, EGFP mRNA 50 ng per well; percentage of GFP fluorescent cells relative to total number of cells (Hoechst)
Method in brief: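 Screening format: EGFP mRNA transfection (50 ng/well) into HEK293 in 10% FBS-supplemented DMEM. Percent green fluorescent cells, normalised to Hoechst nuclear count, gave the value; Lipofectamine2000 was the reference transfectant.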

Compound | Absolute DNA transfection efficiency in HEK293 cells (HEK293 cells [1]) [%] | Absolute mRNA transfection efficiency in HEK293 cells (HEK293 cells [2]) [%]
CCCCCCCCCCCCCCCCSc1nc(NCCCN2CCOCC2)nc(SCCCCCCCCCCCC)n1 [Compound S12S16D8] | 0.2 | 0.0
CCCCCCCCCCCCCCCCCCSc1nc(NCCN2CCN(C)CC2)nc(SCCCCCCCCCCCCCCC)n1 [Compound S15S18D5] | 0.3 | 0.4
CCCCCCCCCCCCCCCCNc1nc(NCCCCCCCCCCCCCCCC)nc(NCCN2CCCC2)n1 [Compound N16N16D3] | 1.4 | 2.8
CCCCCCCCCCCNc1nc(NCCCCCC)nc(NCCN2CCCCC2)n1 [Compound N6N11D4] | 0.0 | 0.0
CCCCCCCCCCCCCCCSc1nc(NCCCN2CCOCC2)nc(SCCCCCCCCCCCCCC)n1 [Compound S14S15D8] | 0.0 | 0.0
CCCCCCCCCCCCCCCCCCSc1nc(NCCN2CCN(C)CC2)nc(SCCCCCCCCCCC)n1 [Compound S11S18D5] | 1.7 | 3.8
CCCCCCCCCCCCSc1nc(NCCN2CCOCC2)nc(SCCCCCCCCCC)n1 [Compound S10S12D2] | 2.4 | 0.0
CCCCCCCCCCCNc1nc(NCCCCCCCCCCC)nc(NCCN2CCCCC2)n1 [Compound N11N11D4] | 0.0 | 4.1
CCCCCCCCCCCCCCCCCCNc1nc(NCCCCCCCC)nc(NCCN(CC)CC)n1 [Compound N8N18D7] | 2.7 | 9.3
CCCCCCCCCCCCN(CCCCCCCCCCCC)c1nc(NCCCCCCCCC)nc(NCCCN2CCN(C)CC2)n1 [N9^2N12D9] | 0.0 | 3.9
CCCCCCCCCCCCCNc1nc(NCCCCCCCCC)nc(NCCN(CC)CC)n1 [Compound N9N13D7] | 0.0 | 0.3
CCCCCCCCCCCCNc1nc(NCCCCCCCC)nc(NCC2CCN(C)CC2)n1 [Compound N8N12D10] | 0.7 | 2.3
CCCCCCNc1nc(NCCCCCC)nc(NCCCN2CCN(C)CC2)n1 [Compound N6N6D9] | 0.0 | 0.2
CCCCCCCCCCCCCCCCSc1nc(NCCCN(C)C)nc(SCCCCCCCCCCCCCC)n1 [Compound S14S16D6] | 1.2 | 0.9
CCCCCCCCCCCCSc1nc(NCC2CCN(C)CC2)nc(SCCCCCCCCCCC)n1 [Compound S11S12D10] | 4.8 | 10.5
CCCCCCCCCCCCCCCNc1nc(NCCCCCCCCCCCCCCC)nc(NCCCN(C)C)n1 [Compound N15N15D6] | 1.5 | 0.0
CCCCCCCCCCCCCCCCNc1nc(NCCCCCCCCC)nc(NCCCN2CCN(C)CC2)n1 [Compound N9N16D9] | 0.0 | 1.1
CCCCCCCCCCCCCCCCNc1nc(NCCCCCCC)nc(NCCCN2CCN(C)CC2)n1 [Compound N7N16D9] | 0.0 | 0.0

Compound | Absolute DNA transfection efficiency in HEK293 cells (HEK293 cells [1]) [%] | Absolute mRNA transfection efficiency in HEK293 cells (HEK293 cells [2]) [%]
CCCCCCCCCCCCCCCCCCSc1nc(NCCN2CCCC2)nc(SCCCCCCCC)n1 [Compound S8S18D3] | 14.3 | 61.5
CCCCCCCCCCCCCCCCSc1nc(NCCCN2CCOCC2)nc(SCCCCCCCCCCCCCCCC)n1 [Compound S16S16D8] | 0.0 | 1.7
CCCCCCCCCCCCN(CCCCCCCCCCCC)c1nc(NCCCCCC)nc(NCCN2CCOCC2)n1 [N6^2N12D2] | 0.2 | 0.0
CCCCCCCCCCCCCCCNc1nc(NCCCCCCCCC)nc(NCC2CCN(C)CC2)n1 [Compound N9N15D10] | 0.0 | 1.7
CCCCCCCCCNc1nc(NCCCCCCC)nc(NCCCN2CCN(C)CC2)n1 [Compound N7N9D9] | 0.7 | 0.0
CCCCCCCCCCCCCCCNc1nc(NCCCN2CCN(C)CC2)nc(N(CCCCCCCCCCCC)CCCCCCCCCCCC)n1 [N15^2N12D9] | 1.7 | 0.0
CCCCCCCCCCCCCCCSc1nc(NCCN(C)C)nc(SCCCCCCCCCCCCCCC)n1 [Compound S15S15D1] | 1.0 | 0.5
CCCCCCCCCCCCCCCCCCSc1nc(NCCN(CC)CC)nc(SCCCCCCCCCCCCCCC)n1 [Compound S15S18D7] | 1.5 | 9.3
CCCCCCCCCCCCCNc1nc(NCCCCCCC)nc(NCCN2CCCCC2)n1 [Compound N7N13D4] | 0.0 | 0.3
CCCCCCCCNc1nc(NCCCCCCCC)nc(NCCN(C)C)n1 [Compound N8N8D1] | 2.3 | 0.0
CCCCCCCCCCCCCCCCCCSc1nc(NCCN(CC)CC)nc(SCCCCCCCCCCCC)n1 [Compound S12S18D7] | 0.7 | 0.0
CCCCCCCCCCCCCCCCSc1nc(NCCN(C)C)nc(SCCCCCCCCCC)n1 [Compound S10S16D1] | 7.2 | 0.1
CCCCCCCCCCCCCCCSc1nc(NCCN2CCOCC2)nc(SCCCCCCCCCCCC)n1 [Compound S12S15D2] | 0.5 | 0.0
CCCCCCCCCCCCCNc1nc(NCCCCCCCCCCCC)nc(NCCN2CCN(C)CC2)n1 [Compound N12N13D5] | 0.3 | 0.0
CCCCCCCCCCCCN(CCCCCCCCCCCC)c1nc(NCCCCCCCC)nc(NCCN(CC)CC)n1 [N8^2N12D7] | 0.0 | 0.0
CCCCCCCCCCCCCCCCSc1nc(NCCN2CCCCC2)nc(SCCCCCCCCCCC)n1 [Compound S11S16D4] | 1.7 | 0.2
CCCCCCCCCCCCCCCCNc1nc(NCCCCCC)nc(NCCCN2CCN(C)CC2)n1 [Compound N6N16D9] | 0.0 | 0.0
CCCCCCCCCCCCCCCNc1nc(NCCCCCC)nc(NCCCN2CCN(C)CC2)n1 [Compound N6N15D9] | 0.1 | 0.0
